# Columns and labels:
# Type in all cases: physicochemical
# [1] = Approximate solubility of starting material at RT by stepwise solvent addition; conditions: thermodynamic from solid
# Description: Starting with Form A, polymorph screening experiments were set up under 34 conditions using methods of slurry conversion, liquid vapor diffusion, slow evaporation, and slow cooling. The approximate solubility of starting material was determined at room temperature (RT). Accurately weighed samples of approximately 2 mg weight were added into a 3-mL glass vial. Solvents were then added step wise (50/50/200/700 μL) into the vials until the solids were dissolved or a total volume of 1 mL was reached.
# [2] = Dynamic vapor sorption (DVS) with XRPD before and after
# From the text: FIG. 8 is a dynamic vapor sorption isotherm plot. Cycle sorption is shown in red; cycle 1 desorption is shown in blue; and cycle 2 sorption is shown in green.
# Pre-DVS data is shown in red; and post-DVS data is shown in blue.
# [3] = Slurry conversion / water activity / slurry competition at RT, solids analysed by XRPD
# Description: Slurry conversion experiments were conducted at RT in different solvent systems. Approximately 20 mg of starting material was suspended in 0.1 mL of solvent in HPLC vials. After the suspension was stirred magnetically for 48 hours at RT, the remaining solids were isolated for XRPD analysis.
# [4] = Solid-form stability on heating, vacuum dehydration and re-exposure to ambient RH (XRPD)
# Description: CV-8972 starting material is shown in blue; CV-8972 following incubation at 90° C. for 8 hours is shown in red; and CV-8972 following incubation at 65° C. in a vacuum for 2 hours is shown in purple. To see if the small DSC endotherm at 85.3° C. corresponds to polymorphic phase transition or dehydration, XRPD was performed on Form A after storing it in an oven at 90° C. for 8 hours.
# Data from starting material is shown in blue; data following incubation for 2 hours in vacuum oven are shown in red; and data from heated material that was exposed to ambient relative humidity is shown in green. To monitor Form A in its dehydrated state, it was placed in a vacuum oven at 65° C. for 2 hours followed by its XRPD analysis.
smiles,measurement,setting,value
"COc1ccc(CN2CCN(CCOC(=O)c3cccnc3)CC2)c(OC)c1OC [Form A, 2-[4-[(2,3,4-trimethoxyphenyl)methyl]piperazin-1-yl]ethyl pyridine-3-carboxylate]",solubility,"[1]; CHCl3, organic solvent or mixture, CHCI3, RT",< 1800 µg/mL
same,solubility,"[1]; organic solvent or mixture, 1,4-Dioxane, RT",< 1700 µg/mL
same,solubility,"[1]; organic solvent or mixture, ACN, RT",< 1500 µg/mL
same,solubility,"[1]; organic solvent or mixture, Acetone, RT",< 2000 µg/mL
same,solubility,"[1]; organic solvent or mixture, CPME, RT",< 1500 µg/mL
same,solubility,"[1]; organic solvent or mixture, DCM, RT",< 2200 µg/mL
same,solubility,"[1]; organic solvent or mixture, DMF, RT",1800 to 6000 µg/mL
same,solubility,"[1]; organic solvent or mixture, DMSO, RT",5000 to 15000 µg/mL
same,solubility,"[1]; organic solvent or mixture, EtOAc, RT",< 1800 µg/mL
same,solubility,"[1]; organic solvent or mixture, EtOH, RT",< 1700 µg/mL
same,solubility,"[1]; organic solvent or mixture, IPA, RT",< 2300 µg/mL
same,solubility,"[1]; organic solvent or mixture, IPAc, RT",< 1700 µg/mL
same,solubility,"[1]; organic solvent or mixture, MEK, RT",< 2000 µg/mL
same,solubility,"[1]; organic solvent or mixture, MIBK, RT",< 2000 µg/mL
same,solubility,"[1]; organic solvent or mixture, MeOH, RT",> 46000 µg/mL
same,solubility,"[1]; organic solvent or mixture, NMP, RT",6700 to 20000 µg/mL
same,solubility,"[1]; organic solvent or mixture, THF, RT",< 2200 µg/mL
same,solubility,"[1]; organic solvent or mixture, Toluene, RT",< 2300 µg/mL
same,solubility,"[1]; organic solvent or mixture, n-Heptane, RT",< 1900 µg/mL
same,solubility,"[1]; water, H2O, RT",> 44000 µg/mL
same,Hygroscopicity (DVS),"[2]; 25° C., up to 80% RH",non hygroscopic
same,Solid Form after slurry conversion,"[3]; Acetone, stirred 48 hours at RT",Form A
same,Solid Form after slurry conversion,"[3]; Acetone/H2O (aw = 0.2, 941/59), 48 hours at RT",Form A
same,Solid Form after slurry conversion,"[3]; Acetone/H2O (aw = 0.4, 857/143), 48 hours at RT",Form A
same,Solid Form after slurry conversion,"[3]; Acetone/H2O (aw = 0.6, 726/274), 48 hours at RT",Form A
same,Solid Form after slurry conversion,"[3]; Acetone/H2O (aw = 0.8, 492/508), 48 hours at RT",Form A
same,Solid Form after slurry conversion,"[3]; H2O, 48 hours at RT",Form A
same,Relative stability among polymorphs,[3]; ambient temperature and relative humidity,most stable
same,Solid form after vacuum oven (XRPD),[4]; 65° C. vacuum for 2 hours,Form E
same,Solid form after oven storage (XRPD),[4]; 90° C. for 8 hours,converts to Form E
"COc1ccc(CN2CCN(CCOC(=O)c3cccnc3)CC2)c(OC)c1OC [CV-8972, 2-[4-[(2,3,4-trimethoxyphenyl)methyl]piperazin-1-yl]ethyl pyridine-3-carboxylate]",Water uptake (DVS),[2]; 25° C. and 80% relative humidity (RH),< 0.2%
same,Mass change (DVS),"[2]; beyond 80% RH, possible deliquescence",drastic increase in the mass change
same,XRPD of the sample after DVS,[2]; post-DVS versus pre-DVS,mostly similar to the starting material
"COc1ccc(CN2CCN(CCOC(=O)c3cccnc3)CC2)c(OC)c1OC [Form E, 2-[4-[(2,3,4-trimethoxyphenyl)methyl]piperazin-1-yl]ethyl pyridine-3-carboxylate]",Solid form change in slurry competition between Forms D and E,[3],converted to Form A
same,Solid form change in water activity analysis,[3]; all conditions tested,converts to Form A
same,Solid form change on exposure to ambient temperature and humidity,"[4]; ambient RH, rehydration",partial conversion to Form A
